From US20260262643A1, “HERBICIDAL BENZOXAZINES” (FMC CORPORATION, priority 2022, published 2026)

Experiments:
corn [1] = test: Test C preemergence; assay type: in vivo, Zea mays
Method in brief: (§1)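 Greenhouse herbicide screen, 10-day duration. Test chemicals in solvent/surfactant blend were sprayed onto soil at sowing (pre) or onto 2–10 cm seedlings at one to two leaves (post); injury scored visually against controls, 0 no effect to 100 complete control.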

ryegrass, Italian [2] = test: Test C preemergence; assay type: in vivo, Lolium multiflorum
Method in brief: as §1

ragweed [3] = test: Test C postemergence; assay type: in vivo, Ambrosia artemisiifolia; settings: 10 days, 0 to 100 scale (0 no effect, 100 complete control)
Method in brief: as §1

barnyardgrass [4] = test: Test C preemergence; assay type: in vivo, Echinochloa crusgalli
Method in brief: as §1

soybean [5] = test: Test C postemergence; assay type: in vivo, Glycine max; settings: 10 days, 0 to 100 scale (0 no effect, 100 complete control)
Method in brief: as §1

ducksalad = test: Test D flooded paddy test; assay type: in vivo, Heteranthera limosa; settings: 250 g ai/ha, applied to paddy water, visual rating after 13 to 14 days, scale 0 to 100 (0 no effect, 100 complete control)
Method in brief: (§2)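 Seedlings reached the 2-leaf stage, then pots were flooded to 3 cm over the soil surface. Compound was applied into the water, depth was maintained, and plants stayed in the greenhouse 13 to 14 days before visual scoring (0–100) relative to controls.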

oat, wild [6] = test: Test C postemergence; assay type: in vivo, Avena fatua; settings: 10 days, 0 to 100 scale (0 no effect, 100 complete control)
Method in brief: as §1

ryegrass, Italian [7] = test: Test C postemergence; assay type: in vivo, Lolium multiflorum; settings: 10 days, 0 to 100 scale (0 no effect, 100 complete control)
Method in brief: as §1

kochia [8] = test: Test C preemergence; assay type: in vivo, Bassia scoparia
Method in brief: as §1

sedge, umbrella = test: Test D flooded paddy test; assay type: in vivo, Cyperus difformis; settings: 250 g ai/ha, applied to paddy water, visual rating after 13 to 14 days, scale 0 to 100 (0 no effect, 100 complete control)
Method in brief: as §2

soybean [9] = test: Test C preemergence; assay type: in vivo, Glycine max
Method in brief: as §1

barnyardgrass [10] = test: Test C postemergence; assay type: in vivo, Echinochloa crusgalli; settings: 10 days, 0 to 100 scale (0 no effect, 100 complete control)
Method in brief: as §1

foxtail, giant [11] = test: Test C postemergence; assay type: in vivo, Setaria faberi; settings: 10 days, 0 to 100 scale (0 no effect, 100 complete control)
Method in brief: as §1

wheat [12] = test: Test C postemergence; assay type: in vivo, Triticum aestivum; settings: 10 days, 0 to 100 scale (0 no effect, 100 complete control)
Method in brief: as §1

pigweed, palmer [13] = test: Test C preemergence; assay type: in vivo, Amaranthus palmeri
Method in brief: as §1

galium = test: Test C postemergence; assay type: in vivo, Galium aparine; settings: 10 days, 0 to 100 scale (0 no effect, 100 complete control)
Method in brief: as §1

foxtail, giant [14] = test: Test C preemergence; assay type: in vivo, Setaria faberi
Method in brief: as §1

ragweed [15] = test: Test C preemergence; assay type: in vivo, Ambrosia artemisiifolia
Method in brief: as §1

kochia [16] = test: Test C postemergence; assay type: in vivo, Bassia scoparia; settings: 10 days, 0 to 100 scale (0 no effect, 100 complete control)
Method in brief: as §1

wheat [17] = test: Test C preemergence; assay type: in vivo, Triticum aestivum
Method in brief: as §1

pigweed, palmer [18] = test: Test C postemergence; assay type: in vivo, Amaranthus palmeri; settings: 10 days, 0 to 100 scale (0 no effect, 100 complete control)
Method in brief: as §1

rice = test: Test D flooded paddy test; assay type: in vivo, Oryza sativa; settings: 250 g ai/ha, applied to paddy water, visual rating after 13 to 14 days, scale 0 to 100 (0 no effect, 100 complete control)
Method in brief: as §2

horseweed = test: Test C postemergence; assay type: in vivo, Erigeron canadensis; settings: 10 days, 0 to 100 scale (0 no effect, 100 complete control)
Method in brief: as §1

blackgrass [19] = test: Test C preemergence; assay type: in vivo, Alopecurus myosuroides
Method in brief: as §1

oat, wild [20] = test: Test C preemergence; assay type: in vivo, Avena fatua
Method in brief: as §1

corn [21] = test: Test C postemergence; assay type: in vivo, Zea mays; settings: 10 days, 0 to 100 scale (0 no effect, 100 complete control)
Method in brief: as §1

barnyardgrass [22] = test: Test D flooded paddy test; assay type: in vivo, Echinochloa crus-galli; settings: 250 g ai/ha, applied to paddy water, visual rating after 13 to 14 days, scale 0 to 100 (0 no effect, 100 complete control)
Method in brief: as §2

blackgrass [23] = test: Test C postemergence; assay type: in vivo, Alopecurus myosuroides; settings: 10 days, 0 to 100 scale (0 no effect, 100 complete control)
Method in brief: as §1

[24] = 500 g ai/ha, preemergence, 0 to 100 scale (0 no effect, 100 complete control)
[25] = Preemergence, 125 g ai/ha, 0 to 100 scale, 0 no effect, 100 complete control

## CC(C)c1ncn(-c2cc(C(=O)N3CC(C(F)(F)F)Oc4c(Cl)cccc43)ccn2)n1 (single isomer, unassigned) [Compound 331]
Corn [1]; [24]
  Corn plant response rating: 0
Corn [1]; [25]
  Plant response rating, Corn: 0
ryegrass, Italian [2]; [24]
  Ryegrass, Italian plant response rating: 60
ryegrass, Italian [2]; [25]
  Plant response rating, Ryegrass, Italian: 60
Ragweed [3]; 500 g ai/ha, postemergence
  Plant response rating, Ragweed: 0
Ragweed [3]; Postemergence, 125 g ai/ha
  Plant response rating, Ragweed: 0
Barnyardgrass [4]; [24]
  Barnyardgrass plant response rating: 0
Barnyardgrass [4]; [25]
  Plant response rating, Barnyardgrass: 0
Soybean [5]; 500 g ai/ha, postemergence
  Plant response rating, Soybean: 100
Soybean [5]; Postemergence, 125 g ai/ha
  Plant response rating, Soybean: 90
ducksalad
  Plant response rating, Ducksalad (Flood): 0
oat, wild [6]; 500 g ai/ha, postemergence
  Plant response rating, Oat, Wild: 0
oat, wild [6]; Postemergence, 125 g ai/ha
  Plant response rating, Oat, Wild: 0
ryegrass, Italian [7]; 500 g ai/ha, postemergence
  Plant response rating, Ryegrass, Italian: 10
ryegrass, Italian [7]; Postemergence, 125 g ai/ha
  Plant response rating, Ryegrass, Italian: 0
Kochia [8]; [24]
  Kochia plant response rating: 20
Kochia [8]; [25]
  Plant response rating, Kochia: 0
sedge, umbrella
  Plant response rating, Sedge, Umbrella (Flood): 0
Soybean [9]; [24]
  Soybean plant response rating: 0
Soybean [9]; [25]
  Plant response rating, Soybean: 0
Barnyardgrass [10]; 500 g ai/ha, postemergence
  Plant response rating, Barnyardgrass: 30
Barnyardgrass [10]; Postemergence, 125 g ai/ha
  Plant response rating, Barnyardgrass: 10
foxtail, giant [11]; 500 g ai/ha, postemergence
  Plant response rating, Foxtail, Giant: 40
foxtail, giant [11]; Postemergence, 125 g ai/ha
  Plant response rating, Foxtail, Giant: 30
Wheat [12]; 500 g ai/ha, postemergence
  Plant response rating, Wheat: 20
Wheat [12]; Postemergence, 125 g ai/ha
  Plant response rating, Wheat: 10
pigweed, palmer [13]; [24]
  Pigweed, Palmer plant response rating: 100
pigweed, palmer [13]; [25]
  Plant response rating, Pigweed, Palmer: 30
galium; 500 g ai/ha, postemergence
  Plant response rating, Galium: 50
galium; Postemergence, 125 g ai/ha
  Plant response rating, Galium: 50
foxtail, giant [14]; [24]
  Foxtail, Giant plant response rating: 60
foxtail, giant [14]; [25]
  Plant response rating, Foxtail, Giant: 20
Ragweed [15]; [24]
  Ragweed plant response rating: 0
Ragweed [15]; [25]
  Plant response rating, Ragweed: 0
Kochia [16]; 500 g ai/ha, postemergence
  Plant response rating, Kochia: 70
Kochia [16]; Postemergence, 125 g ai/ha
  Plant response rating, Kochia: 40
Wheat [17]; [24]
  Wheat plant response rating: 0
Wheat [17]; [25]
  Plant response rating, Wheat: 0
pigweed, palmer [18]; 500 g ai/ha, postemergence
  Plant response rating, Pigweed, Palmer: 50
pigweed, palmer [18]; Postemergence, 125 g ai/ha
  Plant response rating, Pigweed, Palmer: 20
rice
  Plant response rating, Rice (Flood): 0
horseweed; 500 g ai/ha, postemergence
  Plant response rating, Horseweed: 0
horseweed; Postemergence, 125 g ai/ha
  Plant response rating, Horseweed: 0
Blackgrass [19]; [24]
  Blackgrass plant response rating: 70
Blackgrass [19]; [25]
  Plant response rating, Blackgrass: 20
oat, wild [20]; [24]
  Oat, Wild plant response rating: 20
oat, wild [20]; [25]
  Plant response rating, Oat, Wild: 0
Corn [21]; 500 g ai/ha, postemergence
  Plant response rating, Corn: 40
Corn [21]; Postemergence, 125 g ai/ha
  Plant response rating, Corn: 10
Barnyardgrass [22]
  Plant response rating, Barnyardgrass (Flood): 0
Blackgrass [23]; 500 g ai/ha, postemergence
  Plant response rating, Blackgrass: 20
Blackgrass [23]; Postemergence, 125 g ai/ha
  Plant response rating, Blackgrass: 0
